One assay deals with A172-A2 glioma cells. Put plainly: Haptotactic cell migration toward fibronectin, A172-A2. Conditions: A172-A2, 4 hours. Type of assay: cell-based. The text has this:
(§1) One of the well-established functions of Eph receptors is the ligand-dependent repulsive guidance of cell migration. As a ligand-mimicking agonist for EphA2, doxazosin is expected to activate EphA2 on tumor cells and repulse migrating tumor cells in vitro. To test this possibility, we first investigated the effects of doxazosin on integrin-mediated haptotactic cell migration toward fibronectin in a modified Boyden chamber cell migration assay. […] The inhibitory effects were observed when doxazosin was presented either in the bottom chamber, or in both top and bottom chambers in the Transwell assay system. […] Therefore, doxazosin can recapitulate a key function attributed to its native ligands, i.e., negative regulation of cell migration.

In the next assay the test system is PC3-DAB2IP KD cells. Kind of assay: Haptotactic cell migration toward fibronectin, PC3-DAB2IP KD. Conditions: 4 hours. Type of assay: cell-based, human.
Text: as §1

The target of the next assay is T1, endogenous EphB4 (Homo sapiens, UniProt P54760).
T1 construct: host or cells: HEK 293 (vector control)
T1 sequence (P54760 16-987): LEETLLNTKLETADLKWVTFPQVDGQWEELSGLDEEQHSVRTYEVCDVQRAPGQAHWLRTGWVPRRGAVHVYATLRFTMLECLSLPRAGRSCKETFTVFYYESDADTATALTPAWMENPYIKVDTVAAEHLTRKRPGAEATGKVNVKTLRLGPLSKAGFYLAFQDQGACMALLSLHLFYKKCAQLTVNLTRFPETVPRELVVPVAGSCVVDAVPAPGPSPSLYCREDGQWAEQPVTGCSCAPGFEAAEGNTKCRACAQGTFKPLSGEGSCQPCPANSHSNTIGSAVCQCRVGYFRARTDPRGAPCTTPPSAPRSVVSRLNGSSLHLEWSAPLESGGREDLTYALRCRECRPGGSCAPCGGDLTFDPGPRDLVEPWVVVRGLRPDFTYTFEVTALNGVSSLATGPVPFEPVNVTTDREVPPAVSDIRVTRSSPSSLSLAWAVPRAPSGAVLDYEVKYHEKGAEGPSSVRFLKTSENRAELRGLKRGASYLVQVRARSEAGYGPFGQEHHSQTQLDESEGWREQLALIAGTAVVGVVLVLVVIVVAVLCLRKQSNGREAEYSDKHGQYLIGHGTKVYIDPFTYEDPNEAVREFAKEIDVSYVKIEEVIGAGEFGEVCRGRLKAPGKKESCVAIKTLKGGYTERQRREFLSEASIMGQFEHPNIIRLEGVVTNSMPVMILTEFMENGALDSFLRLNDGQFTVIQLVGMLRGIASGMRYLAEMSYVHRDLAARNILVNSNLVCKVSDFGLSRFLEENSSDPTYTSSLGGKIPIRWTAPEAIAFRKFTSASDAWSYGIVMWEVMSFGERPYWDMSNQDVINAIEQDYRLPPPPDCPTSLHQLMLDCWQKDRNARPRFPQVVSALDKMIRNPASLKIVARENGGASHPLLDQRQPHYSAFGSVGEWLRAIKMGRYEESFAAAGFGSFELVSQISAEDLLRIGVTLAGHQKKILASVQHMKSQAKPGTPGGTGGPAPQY
Kind of assay: Endogenous EphB4 activation in HEK 293 vector control cells. Type of assay: cell-based.

Another assay has as its target T2, EphA4 (Homo sapiens, UniProt P54764).
T2 construct: expressed in transfected cells; host or cells: HEK 293
Put plainly: EphA4 activation in HEK 293 cells overexpressing EphA4. Conditions: HEK 293 overexpressing EphA4, 60 minutes. Type of assay: cell-based.

The next assay has as its target EphA2 (Homo sapiens, UniProt P29317). Put plainly: EphA2 activation in MDA-231-A2 cells (pEphA/B immunoblot). Type of assay: cell-based. Set-up: expressed in transfected cells; host or cells: MDA-MB-231 (MDA-231-A2 / MDA-MB-231-A2), puromycin selected; EphA2 activation in compound screen: dose or concentration left out as unconfirmed. As for the experimental part:
Cells were plated in 24-well dishes at a density of 100,000 cells/well and grown for 24 hours prior to stimulation with appropriate compounds and ephrins for the given amounts of time. Compounds were prepared in DMSO at 500 times the final concentrations and 0.2% DMSO was used as vehicle control. Following treatment, cells were lysed directly in SDS Gel Loading Buffer and immunoblotted as described previously. Immunoprecipitation and immunofluorescence staining was performed as described. For immunoprecipitation, 300,000 cells/well were plated in 6-well dishes and lysed in modified RIPA Buffer (20 mM Tris-HCl pH 7.4, 20 mM NaF, 150 mM NaCl, 10% glycerol, 0.1% SDS, 0.5% DCA, 2 mM EDTA, 1% Triton X-100) following treatment. Either 10 μg of ephrin-A1-Fc, or […] of EphA2 mouse monoclonal antibody (Clone D7, Millipore) were used, and mouse IgG was used as a negative control for EphA2 IP. To identify small molecule agonists for EphA2, we took a structure-based in silico screening approach. […] This notion was confirmed recently by determination of the crystal structure of the EphA2/ephrin-A1 complex (FIG. 1B). The size falls in the range of common drugs, making EphA2 LBD a desirable target for drug discovery. Toward this end, we initiated in silico screening to search for small molecules that interact favorably with the ligand-binding pocket of EphA2 derived from molecular modeling before the crystal structure became available. Multiple conformations for each structure were generated with OMEGA (OpenEye) and each conformation was docked individually using DOCK. Our initial screening of over 750,000 compounds identified a number of small molecules that could potentially interact with the ligand-binding pocket. The commercially available top-scoring compounds were screened for their ability to induce EphA2 activation in MDAMB-231 breast cancer cells. Because MDA-MB-231 cells express endogenous EphA2 as well as other Eph receptors, including EphA1, we overexpressed EphA2 in order to minimize the contribution from other Eph receptors in our analysis. […] Total cell lysates were probed with a previously described antibody that recognizes the activated Eph receptors. […] Originally developed as an antagonist for α1-adrenoreceptor, doxazosin (FIG. 1D) is an FDA-approved drug (CARDURA) for treating hypertension and benign prostate hyperplasia (BPH). To confirm specific EphA2 activation by doxazosin, we analyzed levels of activated Eph receptor in MDA-231-A2 cells following treatment with multiple doses of doxazosin and EphA2 immunoprecipitation.
For orientation: A western blot detects proteins with antibodies after separation by electrophoresis.

[1] abbreviates: MDA-231-A2 cells, single 50 μM dose.

EphA2, sequence (P29317 24-976): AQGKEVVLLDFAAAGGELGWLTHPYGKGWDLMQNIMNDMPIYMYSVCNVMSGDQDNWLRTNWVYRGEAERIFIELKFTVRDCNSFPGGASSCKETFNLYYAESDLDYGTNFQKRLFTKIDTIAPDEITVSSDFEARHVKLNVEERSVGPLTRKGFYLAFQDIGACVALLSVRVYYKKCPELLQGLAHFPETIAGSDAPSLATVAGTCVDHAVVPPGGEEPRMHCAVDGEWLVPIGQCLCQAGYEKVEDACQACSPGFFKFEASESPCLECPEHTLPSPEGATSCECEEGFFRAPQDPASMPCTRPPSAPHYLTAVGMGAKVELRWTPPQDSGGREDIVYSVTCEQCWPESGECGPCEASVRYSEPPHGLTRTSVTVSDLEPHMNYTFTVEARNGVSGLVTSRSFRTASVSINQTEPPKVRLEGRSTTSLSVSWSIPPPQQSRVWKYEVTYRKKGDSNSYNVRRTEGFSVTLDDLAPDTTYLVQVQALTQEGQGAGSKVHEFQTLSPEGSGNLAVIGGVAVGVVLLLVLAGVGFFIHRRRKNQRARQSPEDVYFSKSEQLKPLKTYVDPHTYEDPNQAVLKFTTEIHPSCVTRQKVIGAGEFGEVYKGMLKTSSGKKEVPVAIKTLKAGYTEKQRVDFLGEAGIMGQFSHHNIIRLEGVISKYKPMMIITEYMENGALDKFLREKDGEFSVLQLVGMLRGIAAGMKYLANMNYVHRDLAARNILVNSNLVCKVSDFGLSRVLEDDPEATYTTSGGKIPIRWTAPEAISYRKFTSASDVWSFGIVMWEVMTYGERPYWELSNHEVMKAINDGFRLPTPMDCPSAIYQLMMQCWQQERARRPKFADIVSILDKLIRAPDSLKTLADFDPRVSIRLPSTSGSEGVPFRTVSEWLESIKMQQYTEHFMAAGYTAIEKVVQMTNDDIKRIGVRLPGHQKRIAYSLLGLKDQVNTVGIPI
T2 sequence (P54764 20-986, species assumed): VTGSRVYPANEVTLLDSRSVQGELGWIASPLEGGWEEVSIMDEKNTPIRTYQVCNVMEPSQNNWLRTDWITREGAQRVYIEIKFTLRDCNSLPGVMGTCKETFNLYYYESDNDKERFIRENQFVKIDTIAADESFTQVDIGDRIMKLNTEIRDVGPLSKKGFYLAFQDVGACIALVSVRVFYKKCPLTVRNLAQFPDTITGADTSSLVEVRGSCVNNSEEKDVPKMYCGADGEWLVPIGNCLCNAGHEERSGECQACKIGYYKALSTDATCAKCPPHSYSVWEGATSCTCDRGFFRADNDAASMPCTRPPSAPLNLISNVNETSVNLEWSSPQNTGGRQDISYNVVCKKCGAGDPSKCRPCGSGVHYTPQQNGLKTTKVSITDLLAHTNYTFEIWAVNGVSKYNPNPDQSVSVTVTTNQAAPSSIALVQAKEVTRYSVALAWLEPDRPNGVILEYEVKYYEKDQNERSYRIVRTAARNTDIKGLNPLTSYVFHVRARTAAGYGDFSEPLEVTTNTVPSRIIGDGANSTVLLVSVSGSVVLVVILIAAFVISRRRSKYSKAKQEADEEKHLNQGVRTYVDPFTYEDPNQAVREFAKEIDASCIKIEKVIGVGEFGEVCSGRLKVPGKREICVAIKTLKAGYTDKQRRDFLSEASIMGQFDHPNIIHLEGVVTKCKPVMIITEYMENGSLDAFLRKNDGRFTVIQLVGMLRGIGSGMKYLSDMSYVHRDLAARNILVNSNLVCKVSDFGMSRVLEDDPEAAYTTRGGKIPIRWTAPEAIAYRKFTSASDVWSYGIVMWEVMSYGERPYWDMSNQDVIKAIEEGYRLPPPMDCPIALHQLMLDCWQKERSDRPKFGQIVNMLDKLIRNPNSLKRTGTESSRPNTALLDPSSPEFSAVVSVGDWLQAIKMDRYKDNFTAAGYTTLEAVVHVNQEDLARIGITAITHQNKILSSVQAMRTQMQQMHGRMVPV
Experimental for EphA4: (§2) Cells were plated in 24-well dishes at a density of 100,000 cells/well and grown for 24 hours prior to stimulation with appropriate compounds and ephrins for the given amounts of time. Compounds were prepared in DMSO at 500 times the final concentrations and 0.2% DMSO was used as vehicle control. Following treatment, cells were lysed directly in SDS Gel Loading Buffer and immunoblotted as described previously. […] For immunoprecipitation, 300,000 cells/well were plated in 6-well dishes and lysed in modified RIPA Buffer (20 mM Tris-HCl pH 7.4, 20 mM NaF, 150 mM NaCl, 10% glycerol, 0.1% SDS, 0.5% DCA, 2 mM EDTA, 1% Triton X-100) following treatment. Either 10 μg of ephrin-A1-Fc, or 4 mg of EphA2 mouse monoclonal antibody (Clone D7, Millipore) were used, and mouse IgG was used as a negative control for EphA2 IP. […] For this purpose, HEK 293 cell lines overexpressing EphA1, EphA2, EphA3, EphA4, and EphB3 kinases were utilized.
Experimental for endogenous EphB4: as §2

As for `COc1cc2nc(N3CCN(C(=O)C4COc5ccccc5O4)CC3)nc(N)c2cc1OC` (stereo not drawn) [Doxazosin, 2-[4-(2,3-Dihydro-1,4-benzodioxine-2-carbonyl)piperazin-1-yl]-6,7-dimethoxyquinazolin-4-amine], the “haptotactic cell migration toward fibronectin” value in the assay on A172-A2 glioma cells was “dose-dependent inhibition of cell migration”. For the same compound, in the assay on PC3-DAB2IP KD cells, the “haptotactic cell migration toward fibronectin” value is “dose-dependent inhibition of cell migration”. Moreover, the “endogenous EphB4 activation” value at endogenous EphB4 is given as “endogenous EphB4 was not activated”. Besides, the EphA4 kinase activation entry at EphA4 is “activated both EphA2 and EphA4 kinases following a similar dose-response relationship”. Also, at EphA2 (MDA-231-A2 cells pretreated with 1 μM phenoxybenzamine), the “EphA2 activation after phenoxybenzamine pretreatment versus no pretreatment” value was “No difference in EphA2 activation”. For the same compound, the EphA2 degradation entry on EphA2 (MDA-231-A2 cells, high doses) is “degradation of EphA2 following exposure to high doses of doxazosin”. On EphA2 (setting [1]), the “earliest time of significant EphA2 activation” value came to 5 min and the “time of peak EphA2 activation” value is on record as “around 30 min”. Besides, the “EphA2 activation in compound screen” value at EphA2 (MDA-231-A2 cells, total cell lysates) is recorded as “activated EphA2 to the greatest extent”.

Values taken from US11944624B2, “Peptide and small molecule agonists of EphA and their uses” (CASE WESTERN RESERVE UNIVERSITY, priority 2017, dated 2024).
